The values that follow are results of earlier work, collected in patent US9872927B2, “Dye solution” (FLUORON GMBH, priority 2008, dated 2018).

Each structure is given as a SMILES string.

The conditions of data set [1]: dye of U.S. Pat. No. 7,014,991.
The test system of data set [2] is eukaryotes.

Take `O=C1/C(=C2\Nc3ccc(S(=O)(=O)O)cc3C2=O)Nc2ccc(S(=O)(=O)O)cc21` [indigotindisulfonate]: the cytotoxicity result in data set [1] was “cytotoxic”.

For `[2H]O[2H]` [Heavy water, D2O], in data set [2], the “concentration in water tolerated by eukaryotes” value is no more than 20% and the “irritation in the area of application” value was “does not lead to any irritation”.
